Test results published in patent US20250120932A1, “PHARMACEUTICAL COMPOSITION” (NEUROPRO THERAPEUTICS, INC., priority 2021, published 2025).
“And” between values parts separate entries of the source, which are not always exact repeats. Identical values can stand only once.

Key:
[1] = Effect of water content on solubility (formulations F1-F3); type: physicochemical
Protocol: Increasing amounts of PVP and Poloxamer were added to compositions F1-F3 to inhibit rapid precipitation upon dilution in water.
The solutions were then cooled to ambient room temperature and mixed for ˜4 hours prior to filtering and being evaluated by an assay.

[2] = Crossover pharmacokinetic study of Bumetanide Dibenzylamide formulations (IN, SL, IM, PO, SC, IR) in Beagle dogs, plasma LC-MS/MS; type: in vivo
Protocol: Male and female Beagle dogs are assigned to two groups with 2 males and 2 females in each group. The study is conducted in 3 legs with Leg 1 consisting of IM and SL administration, Leg 2 consisting of IN and PO administration, and Leg 3 consisting of SC and IR administration.
During intranasal administration, the composition is administered by gently tilting the animals head back and the intranasal dose is delivered via a syringe and atomizer. During sublingual administration, the composition is administered via a quick dissolving tablet. The tablet is placed in the sublingual space and the mouth held shut for approximately 60-90 seconds. After one minute, the mouth of the animal is opened to confirm that the tablet has fully dissolved. During intramuscular administration, the composition is administered into the bicep femoris (rear thigh). The dose site is gently shaved prior to dosing. A syringe with a 25 g needle is utilized. During oral administration, the composition is administered via three capsules placed at the back of the animal's mouth and the placement is followed by a 10 mL drinking water flush to assure that the animal swallowed the capsules. During subcutaneous administration, the composition is administered into the dorsal subcutaneous space directly at the scruff of the neck of the animal. The dose site is gently shaved prior to dosing. A syringe with a 25 g needle is utilized. During intrarectal administration, the composition is administered by gently placing a 1 cc syringe in the rectum of the animal.
All animals are fasted for approximately 12 hours prior to dosing. Animals are fed four hours post dosing with water offered ad libitum throughout the study. All animals completed the study. […] Blood and urine samples are collected out to 24 hours.
Blood sample are collected from the jugular vein, or other suitable vessel via direct venipuncture, placed into a chilled tube containing K2EDTA as the anticoagulant, and inverted several times to mix. Blood samples are kept on wet ice until centrifugation.
The assay is verified with respect to standard bioanalytical methodology including acceptable accuracy and precision based upon quality control sample analysis and results. The range of the method for both analytes is from about 0.250 ng/ml to about 250 ng/mL.
The PK parameters defined in Table 10 are calculated by non-compartmental methods using individual animal concentration-time data. […] Nominal blood sampling times are used in the analysis. […] Individual below quantitation limits (BQL) results are set to zero for all calculations. No animals are excluded from the analysis. In one aspect, non-compartmental pharmacokinetic analysis provides observed or calculated values of Cmax, Tmax, and AUClast for all animals and estimates of AUCinf and CL/F for those animals where a terminal phase half-life (t1/2) could be estimated.

## CCCCNc1cc(C(=O)N(Cc2ccccc2)Cc2ccccc2)cc(S(N)(=O)=O)c1Oc1ccccc1 [Bumetanide Dibenzylamide, N, N-dibenzyl 3-aminosulfonyl-5-butylamino-4-phenoxybenzamide]
[1]; rectal gel, about 20% water
  maximum concentration of Bumetanide Dibenzylamide: about 2.4%
[1]; rectal paste, no water
  maximum concentration of Bumetanide Dibenzylamide: about 4.16%
[2]; IN, 15 mg
  AUCinf: 234 ng·h/mL and 224 ng·h/mL and 164 ng·h/mL and 221 ng·h/mL
  CL/F: 64.1 L/h and 66.8 L/h and 91.5 L/h and 67.7 L/h
[2]; IN, 15 mg, 24 h
  Plasma Bumetanide Dibenzylamide concentration: 3.15 ng/mL and 2.07 ng/mL and 1.59 ng/mL
[2]; IN, 15 mg, 24 h, mean
  Plasma Bumetanide Dibenzylamide concentration: 2.31 ng/mL
[2]; IN, 15 mg, mean
  CL/F: 72.5 L/h
[2]; IR, 30 mg, at all times after dosing
  Mean concentrations of Bumetanide Dibenzylamide: less than 10 ng/mL
[2]; PO capsules, 30 mg
  AUCinf: 980 ng·h/mL and 698 ng·h/mL and 666 ng·h/mL and 910 ng·h/mL
  AUClast: 675 ng·h/mL and 639 ng·h/mL and 893 ng·h/mL
  CL/F: 30.6 L/h and 43.0 L/h and 45.0 L/h and 33.0 L/h
  Cmax: 280 ng/mL and 158 ng/mL and 175 ng/mL and 259 ng/mL
  t½: 5.62 h and 6.79 h and 5.10 h
[2]; PO capsules, 30 mg, 2 h
  Plasma Bumetanide Dibenzylamide concentration: 280 ng/mL and 158 ng/mL and 175 ng/mL
[2]; PO capsules, 30 mg, 2 h, mean
  Plasma Bumetanide Dibenzylamide concentration: 218 ng/mL
[2]; PO capsules, 30 mg, 4 h
  Plasma Bumetanide Dibenzylamide concentration: 85.3 ng/mL and 68.7 ng/mL and 56.9 ng/mL
[2]; PO capsules, 30 mg, 4 h, mean
  Plasma Bumetanide Dibenzylamide concentration: 76.7 ng/mL
[2]; PO capsules, 30 mg, 8 h
  Plasma Bumetanide Dibenzylamide concentration: 21.2 ng/mL and 21.9 ng/mL and 15.7 ng/mL
[2]; PO capsules, 30 mg, 8 h, mean
  Plasma Bumetanide Dibenzylamide concentration: 20.1 ng/mL
[2]; PO capsules, 30 mg, 12 h
  Plasma Bumetanide Dibenzylamide concentration: 8.65 ng/mL and 10.5 ng/mL and 7.91 ng/mL
[2]; PO capsules, 30 mg, 12 h, mean
  Plasma Bumetanide Dibenzylamide concentration: 9.34 ng/mL
[2]; PO capsules, 30 mg, 24 h
  Plasma Bumetanide Dibenzylamide concentration: 2.86 ng/mL and 2.84 ng/mL and 2.83 ng/mL
[2]; PO capsules, 30 mg, 24 h, mean
  Plasma Bumetanide Dibenzylamide concentration: 2.71 ng/mL
[2]; PO capsules, 30 mg, mean
  AUClast: 791 ng·h/mL
  CL/F: 37.9 L/h
  t½: 5.85 h
[2]; SC, 15 mg
  AUCinf: 286 ng·h/mL and 247 ng·h/mL and 158 ng·h/mL
  AUClast: 79.8 ng·h/mL and 129 ng·h/mL and 91.3 ng·h/mL
  CL/F: 52.4 L/h and 64.8 L/h and 60.7 L/h and 94.7 L/h
  t½: 36.2 h and 22.2 h and 19.1 h
[2]; SC, 15 mg, 0 h
  Plasma Bumetanide Dibenzylamide concentration: 1.65 ng/mL and 2.39 ng/mL and 1.55 ng/mL
[2]; SC, 15 mg, 0 h, mean
  Plasma Bumetanide Dibenzylamide concentration: 1.75 ng/mL
[2]; SC, 15 mg, 0.5 h
  Plasma Bumetanide Dibenzylamide concentration: 2.76 ng/mL and 3.42 ng/mL and 1.81 ng/mL
[2]; SC, 15 mg, 0.5 h, mean
  Plasma Bumetanide Dibenzylamide concentration: 2.52 ng/mL
[2]; SC, 15 mg, 8 h
  Plasma Bumetanide Dibenzylamide concentration: 4.54 ng/mL and 7.47 ng/mL and 4.14 ng/mL
[2]; SC, 15 mg, 8 h, mean
  Plasma Bumetanide Dibenzylamide concentration: 5.71 ng/mL
[2]; SC, 15 mg, 12 h
  Plasma Bumetanide Dibenzylamide concentration: 3.35 ng/mL and 5.77 ng/mL and 3.22 ng/mL
[2]; SC, 15 mg, 12 h, mean
  Plasma Bumetanide Dibenzylamide concentration: 4.36 ng/mL
[2]; SC, 15 mg, 24 h
  Plasma Bumetanide Dibenzylamide concentration: 2.43 ng/mL and 4.30 ng/mL and 2.90 ng/mL
[2]; SC, 15 mg, 24 h, mean
  Plasma Bumetanide Dibenzylamide concentration: 3.33 ng/mL
[2]; SC, 15 mg, mean
  AUClast: 113 ng·h/mL
  CL/F: 68.2 L/h
  t½: 24.8 h
[2]; SL, 30 mg
  CL/F: 1690 L/h
  Tmax: 1.00 h
